Measured values as given in PMC10779433, “Bidirectional Allosteric Coupling between PIP2 Binding and the Pore of the Oncochannel TRPV6” (International Journal of Molecular Sciences, 2024).
No end group written: not given here. *: point of attachment. Palmitoyl = CCCCCCCCCCCCCCCC(=O)*

Assays:
TRPV6 WT = target: T1, TRPV6 WT (Homo sapiens, UniProt Q9H1D0); test: Fura-2 Ca2+ imaging, TRPV6 WT; type: cell-based; conditions: HEK293 cells; 20 μM control peptide; effect likely attributable to ongoing channel inactivation
T1 construct: expressed in transfected cells; host or cells: HEK293 cells, transient transfection
T1 sequence (Q9H1D0 41-765 limits assumed): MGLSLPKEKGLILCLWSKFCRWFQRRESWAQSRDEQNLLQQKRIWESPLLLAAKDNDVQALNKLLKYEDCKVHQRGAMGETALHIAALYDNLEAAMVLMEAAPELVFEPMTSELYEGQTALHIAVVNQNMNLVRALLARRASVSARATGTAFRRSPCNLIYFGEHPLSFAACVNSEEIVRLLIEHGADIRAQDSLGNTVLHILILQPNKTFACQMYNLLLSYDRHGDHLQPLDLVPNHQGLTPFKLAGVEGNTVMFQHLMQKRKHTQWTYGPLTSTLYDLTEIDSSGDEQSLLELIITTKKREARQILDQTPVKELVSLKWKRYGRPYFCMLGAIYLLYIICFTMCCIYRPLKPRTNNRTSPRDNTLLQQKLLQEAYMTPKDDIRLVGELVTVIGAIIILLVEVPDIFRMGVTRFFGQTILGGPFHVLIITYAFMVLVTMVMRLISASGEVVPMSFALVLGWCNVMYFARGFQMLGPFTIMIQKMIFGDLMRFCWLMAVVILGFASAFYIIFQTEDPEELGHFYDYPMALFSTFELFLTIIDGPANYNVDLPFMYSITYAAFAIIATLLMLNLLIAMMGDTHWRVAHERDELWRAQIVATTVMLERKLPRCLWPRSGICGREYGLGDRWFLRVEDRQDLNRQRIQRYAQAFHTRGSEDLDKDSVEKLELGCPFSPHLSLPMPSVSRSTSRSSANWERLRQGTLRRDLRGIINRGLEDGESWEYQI

TRPV6 = conditions: physiologically relevant concentrations; ref [19],[59]; cited from earlier work

Substance | decrease in cytosolic Ca2+ level (in words) (TRPV6 WT) | activation of TRPV6 (TRPV6)
Palmitoyl-HAQKHFEAAA [control peptide, palmitoylated peptide having four of the basic residues of the pal-PIP2 peptide replaced by alanine] | slow, continuous reduction | 
phosphatidylinositol-4-phosphate [PI(4)P] |  | does not activate TRPV6
